This note sets out measurements from US20050159476A1, “Pharmaceutical composition for preventing or treating respiratory disease” (Chugai Seiyaku Kabushiki Kaisha, priority 2002, published 2005).

Read-outs that look alike come from different tables or passages of the source.

For experiment [1], the system named is normal human bronchial/tracheal epithelial cells (NHBE w/RA). In words: Protective effect against cell injury induced by oxidized LDL in normal human bronchial/tracheal epithelial cells (LDH leakage). The class given is cell-based. The following applies: 24 h, average ± standard error; for inhibition at 3 µM: 3 μmol/L test compound; for inhibition at 30 µM: 30 μmol/L test compound. The procedure:
(§1) Oxidized LDL was prepared by maintaining 1 mg/mL of rabbit LDL at 37° C for 24 hours in PBS (-) containing 10 μmol/L CUSO4.
(§2) These cells were dispersed in F12K medium containing 10% FBS and plated on a 24-well plate at 2.5×10^4 cells/500 μL/well. These cells were incubated at 37° C. for 18 hours and then the medium was replaced by F12K medium containing 2% FBS. At this time, 2.5 μL of a solution or a suspension of each test compound in ethanol was added at the concentrations of the test compound of 3 μmol/L and 30 μmol/L in each well.
(§3) After incubation at 37° C. for 6 hours, 50 μL of a suspension of oxidized LDL was added per well at the concentration of oxidized LDL of 100 μg/mL in each well.
(§4) After incubation at 37° C. for 24 hours, 200 μL of the supernatant was collected from each well and the amount of lactate dehydrogenase (LDH) leaked from cells was determined by the SFBC method.
(§5) Further test was carried out in the same manner as the above test with the exception that each test compound was added to the cell culture after incubation for 6 hours following medium replacement and immediately before oxidized LDL was added thereto rather than when the medium was replaced with F12K medium containing 2% FBS.
(§6) Higher LDH levels in the supernatant indicate that greater cell injury is induced by oxidized LDL. Separately, one experiment was carried out using a well in the same manner as the above test with the exception that no test compound was added to the well. The level of LDH in this well was defined as 0% cell protection. In addition, other experiment was carried out using another well without adding either test compound or oxidized LDL but with adding saline instead. The level of LDH in this well was defined as 100% cell protection. These levels of LDH were used for calculating cell protection of each test compound used in the above test.
This test example was carried out in a similar manner to test example 1 except that human A549 cells were replaced with normal human bronchial/tracheal epithelial cells (NHBE w/RA: BioWhittaker Co.), cell culture medium was changed from F12K medium containing 10% FBS to BEGM® medium, and the replacement of medium was not made.

For the next experiment, the system named is human A549 cells. In words: Protective effect against cell injury induced by oxidized LDL in human A549 cells (LDH leakage). The following applies: for inhibition at 3 µM / inhibition at 30 µM: Homo sapiens, oxidized LDL 100 μg/mL, 24 hours, average ± standard error; for inhibition at 3 µM: 3 μmol/L test compound; for inhibition at 30 µM: 30 μmol/L test compound; for % cell protection as a function of test compound concentration (FIG. 1): test compound added immediately before oxidized LDL, Test Example 2. The experiment is classed as cell-based. The procedure:
as §1
Human A549 cells used in this test are available under accession number ATCC-CCL-185 and have the properties of type II alveolar epithelial cells (Lieber M, Smith B, Szakal A, Nelson-Rees W, Todaro G., A continuous tumor-cell line from a human lung carcinoma with properties of type II alveolar epithelial cells. Int J Cancer Jan. 15, 1976; 17(1):62-70).
as §2, §3, §4, §5, §6
Probucol and α-tocopherol were tested for comparison with the compounds of the present invention. In this test, the test compounds were added to the cell culture after incubation for 6 hours following medium replacement and immediately before oxidized LDL was added.

Where [2] appears, read: read-out: % Cell protection in the case where oxidized LDL was added 6 hrs after adding test compound.
The mark [3] stands for this setting: read-out: % Cell protection in the case where oxidized LDL was added immediately after adding test compound.

For the compound `CC(C)(C)c1cc2c(c(C(C)(C)C)c1O)CC1(CCOCC1)S2` [Compound 14, 4,6-di-t-butyl-5-hydroxy-2,3-dihydrobenzothiophene-2-spiro-4′-tetrahydropyran], the inhibition at 3 µM is -0.5 ± 1.9% in experiment [1] (setting [2]), -1 ± 5.3% in experiment [1] (setting [3]), 7 ± 3.5% in the experiment with human A549 cells (setting [2]) and 3.2 ± 1.3% in the experiment with human A549 cells (setting [3]). The inhibition at 30 µM is 63.3 ± 0.8% in experiment [1] (setting [2]), 60.6 ± 4% in experiment [1] (setting [3]), 96.1 ± 1.2% in the experiment with human A549 cells (setting [2]) and 98.9 ± 2.4% in the experiment on human A549 cells (setting [3]).

Turning to `CC(C)(C)c1cc2c(c(C(C)(C)C)c1O)CCO2` [Compound 1, 4,6-di-t-butyl-5-hydroxy-2,3-dihydrobenzofuran], the inhibition at 3 µM in experiment [1] (setting [2]) turned out to be 5.9 ± 4.7%; in experiment [1] (setting [3]), 35.6 ± 16.8%; with human A549 cells (setting [2]), 11.3 ± 1.6%; in the experiment on human A549 cells (setting [3]) it was 40.4 ± 8.3%. The inhibition at 30 µM in experiment [1] (setting [2]) is 74.7 ± 1.4%; in experiment [1] (setting [3]), 59.2 ± 7.6%; in the experiment with human A549 cells (setting [2]) it was 99.6 ± 0.9%; in the experiment on human A549 cells (setting [3]), 98.8 ± 0.2%.

Regarding `CC1(C)Cc2c(cc(C(C)(C)C)c(O)c2C(C)(C)C)S1` [Compound 12, 4,6-di-t-butyl-5-hydroxy-2,2-dimethyl-2,3-dihydrobenzothiophene], the inhibition at 3 µM in experiment [1] (setting [2]) is 10.9 ± 2.1%; in experiment [1] (setting [3]) it was 10.9 ± 3.8%; in the experiment on human A549 cells (setting [2]), 9.9 ± 6.8%; in the experiment with human A549 cells (setting [3]), 11.1 ± 7.4%. In addition, the inhibition at 30 µM in experiment [1] (setting [2]) was 21.2 ± 2%; in experiment [1] (setting [3]) it was 48.7 ± 1.2%; in the experiment on human A549 cells (setting [2]) it was 98.7 ± 2.9%; with human A549 cells (setting [3]), 96.6 ± 2%.

For the compound `CC1(CN)Cc2c(cc(C(C)(C)C)c(O)c2C(C)(C)C)O1` (stereo not drawn) [Compound 5, 2-aminomethyl-4,6-di-t-butyl-5-hydroxy-2-methyl-2,3-dihydrobenzofuran], the inhibition at 3 µM in experiment [1] (setting [2]) was determined as 6.3 ± 4.5%; in experiment [1] (setting [3]), 0.8 ± 4.6%; in the experiment with human A549 cells (setting [2]), 6.4 ± 0.8%; in the experiment with human A549 cells (setting [3]), 6.9 ± 3.1%. Further, the inhibition at 30 µM was 33.6 ± 1.8% in experiment [1] (setting [2]), 48.3 ± 8.1% in experiment [1] (setting [3]), 96.5 ± 0.5% with human A549 cells (setting [2]) and 97.1 ± 0.8% with human A549 cells (setting [3]).

Take `CC(C)(Sc1cc(C(C)(C)C)c(O)c(C(C)(C)C)c1)Sc1cc(C(C)(C)C)c(O)c(C(C)(C)C)c1` [probucol, reference compound]: the “% cell protection as a function of test compound concentration (FIG. 1)” value with human A549 cells was “does not increase or only slowly increases”.

Consider `CCCCCC1(CCCCC)Cc2c(cc(C)c(O)c2C)O1` [Compound 17, 4,6-dimethyl-2,2-di-n-pentyl-5-hydroxy-2,3-dihydrobenzofuran], for which the inhibition at 3 µM in experiment [1] (setting [2]) came out at 44.8 ± 5.9%; in experiment [1] (setting [3]), 51 ± 5%; with human A549 cells (setting [2]), 97.8 ± 1.4%; in the experiment with human A549 cells (setting [3]), 97.7 ± 1.1%. The inhibition at 30 µM stood at 57.6 ± 0.6% in experiment [1] (setting [3]) and 98.1 ± 3.6% with human A549 cells (setting [3]).

Take `Cc1c(C)c2c(c(C)c1O)CC[C@@](C)(CCC[C@H](C)CCC[C@H](C)CCCC(C)C)O2` [α-tocopherol, reference compound]: in the experiment on human A549 cells, the “% cell protection as a function of test compound concentration (FIG. 1)” value is recorded as “does not increase or only slowly increases”.

As for `CC(C)(C)c1cc2c(c(C(C)(C)C)c1O)CC1(CCCCC1)S2` [Compound 13, 4,6-di-t-butyl-5-hydroxy-2,3-dihydrobenzothiophene-2-spiro-1′-cyclohexane], the inhibition at 3 µM in experiment [1] (setting [2]) was -3.4 ± 7.1%; in experiment [1] (setting [3]) it was -4.8 ± 2.9%; with human A549 cells (setting [2]), 10.8 ± 3.9%; in the experiment with human A549 cells (setting [3]), 11.3 ± 3.5%. The inhibition at 30 µM in experiment [1] (setting [2]) came out at 37.8 ± 0.7%; in experiment [1] (setting [3]) it was 49.2 ± 1.7%; in the experiment with human A549 cells (setting [2]) it was 98 ± 1%; in the experiment with human A549 cells (setting [3]), 97.1 ± 4.3%.

With `Cc1cc2c(c(C)c1O)CC(C)(C)O2` [Compound 15, 5-hydroxy-2,2,4,6-tetramethyl-2,3-dihydrobenzofuran], the inhibition at 3 µM in experiment [1] (setting [2]) came out at 45.9 ± 4.5%; in experiment [1] (setting [3]), 40.8 ± 3.3%; with human A549 cells (setting [2]) it was 30 ± 10.2%; in the experiment on human A549 cells (setting [3]) it was 36.1 ± 14.1%. Moreover, the inhibition at 30 µM came out at 79.5 ± 6.4% in experiment [1] (setting [2]), 70.6 ± 4.9% in experiment [1] (setting [3]), 100.6 ± 0.9% in the experiment with human A549 cells (setting [2]) and 99.6 ± 0.7% with human A549 cells (setting [3]).

Turning to `CC(C)(C)c1cc2c(c(C(C)(C)C)c1O)CC(Cc1ccccc1)(Cc1ccccc1)O2` [Compound 4, 4,6-di-t-butyl-2,2-dibenzyl-5-hydroxy-2,3-dihydrobenzofuran], the inhibition at 3 µM in experiment [1] (setting [2]) turned out to be 12.3 ± 4.3%; in experiment [1] (setting [3]), 9.1 ± 2.3%; with human A549 cells (setting [2]), 6.1 ± 2.5%; in the experiment with human A549 cells (setting [3]), 5.3 ± 2.5%. In addition, the inhibition at 30 µM in experiment [1] (setting [2]) was 47.8 ± 1.6%; in experiment [1] (setting [3]), 53.5 ± 3.1%; in the experiment with human A549 cells (setting [2]), 94.1 ± 0.4%; in the experiment on human A549 cells (setting [3]), 95.3 ± 3.4%.

As for `CC(C)(C)c1cc2c(c(C(C)(C)C)c1O)CC1(CCCC1)O2` [Compound 9, 4,6-di-t-butyl-5-hydroxy-2,3-dihydrobenzofuran-2-spiro-1′-cyclopentane], the inhibition at 3 µM is 3.7 ± 6.7% in experiment [1] (setting [2]), 6.1 ± 1.1% in experiment [1] (setting [3]), -1.6 ± 4.4% in the experiment with human A549 cells (setting [2]) and -1.5 ± 4.1% in the experiment with human A549 cells (setting [3]). In addition, the inhibition at 30 µM turned out to be 18.1 ± 2.3% in experiment [1] (setting [2]), 71.1 ± 2.3% in experiment [1] (setting [3]), 98.5 ± 1.8% with human A549 cells (setting [2]) and 99.2 ± 2.2% in the experiment on human A549 cells (setting [3]).

For `CC(C)(C)c1cc2c(cc1O)CC1(CCCCCC1)O2` [Compound 18, 6-t-butyl-5-hydroxy-2,3-dihydrobenzofuran-2-spiro-1′-cycloheptane], the inhibition at 3 µM in experiment [1] (setting [2]) came to 55.7 ± 3.1%; in experiment [1] (setting [3]), 46.4 ± 1.4%; in the experiment on human A549 cells (setting [2]) it was 98.7 ± 1.3%; in the experiment on human A549 cells (setting [3]), 96.2 ± 0.4%. For the same compound, the figures for the inhibition at 30 µM (in experiment [1] (setting [3]); in the experiment with human A549 cells (setting [3])) were 35.5 ± 1.9% and 97.4 ± 1%, respectively.

Consider `CC(C)(C)c1cc2c(c(C(C)(C)C)c1O)CC1(CCOCC1)O2` [Compound 8, 4,6-di-t-butyl-5-hydroxy-2,3-dihydrobenzofuran-2-spiro-4′-tetrahydropyran], for which the inhibition at 3 µM amounted to 10.1 ± 6% in experiment [1] (setting [2]), 13.2 ± 1.4% in experiment [1] (setting [3]), 10.6 ± 6.2% in the experiment with human A549 cells (setting [2]) and 10.8 ± 5.2% with human A549 cells (setting [3]). Also, the inhibition at 30 µM stood at 74.3 ± 1.5% in experiment [1] (setting [2]), 68.9 ± 0.8% in experiment [1] (setting [3]), 95 ± 5.3% in the experiment on human A549 cells (setting [2]) and 93.6 ± 2.9% with human A549 cells (setting [3]).

As to `CC(C)(C)c1cc2c(c(C(C)(C)C)c1O)CC1(CCSCC1)O2` [Compound 11, 4,6-di-t-butyl-5-hydroxy-2,3-dihydrobenzofuran-2-spiro-4′-tetrahydrothiopyran], the inhibition at 3 µM in experiment [1] (setting [2]) was 3 ± 3.2%; in experiment [1] (setting [3]), 7.5 ± 7.6%; with human A549 cells (setting [2]), 3.5 ± 2.6%; in the experiment with human A549 cells (setting [3]), 4.6 ± 2.6%. In addition, the inhibition at 30 µM turned out to be 52 ± 2.2% in experiment [1] (setting [2]), 40.9 ± 5.3% in experiment [1] (setting [3]), 99.3 ± 1.1% in the experiment on human A549 cells (setting [2]) and 98.5 ± 0.8% in the experiment with human A549 cells (setting [3]).

Consider `CC(C)(C)c1cc2c(c(C(C)(C)C)c1O)CC1(CCCCC1)O2` [Compound 10, 4,6-di-t-butyl-5-hydroxy-2,3-dihydrobenzofuran-2-spiro-1′-cyclohexane], for which the inhibition at 3 µM in experiment [1] (setting [2]) was 5.3 ± 2.6%; in experiment [1] (setting [3]), 13.1 ± 6.4%; in the experiment with human A549 cells (setting [2]) it was -0.7 ± 1.5%; in the experiment on human A549 cells (setting [3]), 0.9 ± 1.9%. For the same compound, the inhibition at 30 µM was 37.3 ± 4.3% in experiment [1] (setting [2]), 57 ± 2.5% in experiment [1] (setting [3]), 97.8 ± 2.1% in the experiment with human A549 cells (setting [2]) and 96.9 ± 4.8% with human A549 cells (setting [3]).
